Assay results taken from patent publication US12178810B2 (priority 2016, dated 2024).

Assays:
[1] = system: Healthy human male volunteers; assay: Retrospective analysis of the Phase 1 DDI study: heart rate and blood pressure at rest; type: in vivo
Description: FIG. 2. […] By ‘t’ test—Wilcoxon matched-pairs signed rank test.
(§1) Healthy human male volunteers, 18-50 years of age. A total of 14 subjects were included in the study.
(§2) Two consecutive study periods separated by a washout period of at least three days. The sequence of events was the same for all subjects.
Particularly, the effect of tesofensine-metoprolol on heart rate and blood pressure at rest, was investigated.

healthy male subjects = conditions: metoprolol alone; cited from earlier work
CYP2D6 = target: T1, CYP2D6 (Homo sapiens, UniProt P10635); assay: Phase 1 drug-drug interaction (DDI) study with metoprolol: metoprolol pharmacokinetics without and with tesofensine at steady state; type: in vivo; conditions: metoprolol 50 mg single dose after 14 days tesofensine vs metoprolol alone
T1 construct: Healthy human male volunteers, 18-50 years of age; A total of 14 subjects were included in the study; from tissue; host or cells: in vivo, healthy human male volunteers (endogenous enzyme)
Description: FIG. 1. PK of metoprolol after a single dosing in absence and presence of tesofensine at steady state.
as §1, §2

obese patients = conditions: long-term treatment, corrected for placebo and diet effects; cited from earlier work

T1 sequence (P10635 whole entry): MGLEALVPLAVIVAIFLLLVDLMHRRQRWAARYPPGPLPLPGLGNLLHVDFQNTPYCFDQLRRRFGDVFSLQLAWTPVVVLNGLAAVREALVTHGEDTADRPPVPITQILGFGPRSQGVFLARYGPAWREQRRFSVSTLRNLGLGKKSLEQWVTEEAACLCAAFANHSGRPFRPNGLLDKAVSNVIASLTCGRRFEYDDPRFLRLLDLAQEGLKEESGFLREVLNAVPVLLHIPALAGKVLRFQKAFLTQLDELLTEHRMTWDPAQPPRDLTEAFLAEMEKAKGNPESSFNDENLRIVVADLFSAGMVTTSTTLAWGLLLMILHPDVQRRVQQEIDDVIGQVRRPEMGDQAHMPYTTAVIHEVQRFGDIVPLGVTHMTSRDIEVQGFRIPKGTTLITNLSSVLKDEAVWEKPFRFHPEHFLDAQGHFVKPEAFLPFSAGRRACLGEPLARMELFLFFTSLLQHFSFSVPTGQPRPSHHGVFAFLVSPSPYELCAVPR

| Compound | effect on tesofensine-induced increase in heart rate, 7 hours after single metoprolol dose ([1]; day 14, tesofensine treated subjects, 7 hours after metoprolol) | effect on heart rate, ~24 hours after single metoprolol dose ([1]; day 15, tesofensine treated subjects, ~24 hours after metoprolol) | decrease in supine diastolic blood pressure (healthy male subjects) | decrease in supine systolic blood pressure (healthy male subjects) | heart rate after 14 days of tesofensine vs prelevel ([1]; tesofensine only, day 14, p<0.01 vs prelevel) | diastolic BP after 14 days of tesofensine treatment ([1]; tesofensine only, vs pre-treatment) | systolic BP after 14 days of tesofensine treatment ([1]; tesofensine only, vs pre-treatment, not significant) | effect on metoprolol Cmax (CYP2D6) | effect on metoprolol Tmax (CYP2D6) | weight loss (obese patients) |
| --- | --- | --- | --- | --- | --- | --- | --- | --- | --- | --- |
| COCCc1ccc(OCC(O)CNC(C)C)cc1 (stereo not shown) [metoprolol, 1-(Isopropylamino)-3-[4-(2-methoxyethyl)-phenoxy]-propan-2-ol] | normalize the tesofensine-induced increase in heart rate | disappeared | about 4 mmHg | about 4 mmHg | – | – | – | – | – | – |
| CCOC[C@@H]1[C@@H](c2ccc(Cl)c(Cl)c2)C[C@@H]2CC[C@H]1N2C [tesofensine, (1R,2R,3S,5S)-3-(3,4-dichlorophenyl)-2-(ethoxymethyl)-8-methyl-8-azabicyclo[3.2.1]octane] | – | – | – | – | Increase in heart rate | essentially not altered | increase systolic BP slightly | no effect | no effect | about 10% |
